In this assay the target is T1, Seed linoleate 13S-lipoxygenase-1 (Glycine max, UniProt P08170).
T1 sequence (P08170 whole entry): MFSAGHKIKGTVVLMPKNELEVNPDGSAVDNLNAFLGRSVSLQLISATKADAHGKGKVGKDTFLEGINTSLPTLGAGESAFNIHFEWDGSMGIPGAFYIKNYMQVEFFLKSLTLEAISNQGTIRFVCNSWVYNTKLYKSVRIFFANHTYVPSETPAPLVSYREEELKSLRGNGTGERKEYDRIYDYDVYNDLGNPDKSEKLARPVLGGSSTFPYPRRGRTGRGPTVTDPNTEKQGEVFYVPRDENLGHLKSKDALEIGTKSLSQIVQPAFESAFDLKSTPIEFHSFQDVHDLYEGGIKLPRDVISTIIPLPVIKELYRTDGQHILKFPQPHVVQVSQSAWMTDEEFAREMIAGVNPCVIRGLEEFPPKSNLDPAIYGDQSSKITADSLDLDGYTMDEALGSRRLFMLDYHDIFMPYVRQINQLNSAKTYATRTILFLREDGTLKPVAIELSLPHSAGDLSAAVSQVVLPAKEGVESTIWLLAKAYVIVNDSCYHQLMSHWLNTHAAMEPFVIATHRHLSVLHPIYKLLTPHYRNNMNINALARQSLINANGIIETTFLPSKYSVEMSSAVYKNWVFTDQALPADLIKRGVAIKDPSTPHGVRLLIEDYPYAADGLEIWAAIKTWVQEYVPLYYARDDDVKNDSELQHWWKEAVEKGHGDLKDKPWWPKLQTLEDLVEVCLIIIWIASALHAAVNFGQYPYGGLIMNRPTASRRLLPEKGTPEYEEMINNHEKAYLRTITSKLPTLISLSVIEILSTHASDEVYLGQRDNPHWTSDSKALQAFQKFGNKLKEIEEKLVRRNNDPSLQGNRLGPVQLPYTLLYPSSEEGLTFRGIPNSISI
Kind of assay: Inhibition of soybean lipoxygenase-1 assessed as inhibition of conversion of linoleic acid into hydroperoxy […] acid preincubated for 10 mins before substrate addition measured over 20 mins by spectrophotometric assay.

The term IC50 denotes the point on the concentration scale where inhibition reaches its midpoint.

As to `C[C@H]1CCCC(=O)CCC/C=C/c2cc(O)cc(O)c2C(=O)O1` [ZEARALENONE], the IC50 was found to be 51 µM.

The record behind these values is ChEMBL document CHEMBL2412991, “Catalytic asymmetric total synthesis of (S)-(-)-zearalenone, a novel lipoxygenase inhibitor” (Bioorg Med Chem, 2013).
